Assay: xn = mol fraction of the nth substance listed

OC(C(F)(F)F)C(F)(F)F + O
viscosity [mPa·s], 101 kPa
Settings | 298.15 K | 303.15 K | 313.15 K | 323.15 K
x1 = 0.002095 | 0.921 | 0.824 | 0.671 | 0.559
x1 = 0.004456 | 0.959 | 0.857 | 0.691 | 0.575
x1 = 0.008636 | 1.027 | 0.911 | 0.73 | 0.602
x1 = 0.01141 | 1.076 | 0.951 | 0.756 | 0.621
x1 = 0.0205 | 1.22 | 1.069 | 0.84 | 0.682
x1 = 0.0264 | 1.31 | 1.147 | 0.897 | 0.727
x1 = 0.04493 | 1.583 | 1.383 | 1.075 | 0.869
x1 = 0.06872 | 1.854 | 1.606 | 1.246 | 0.997
x1 = 0.09912 | 2.077 | 1.797 | 1.377 | 1.094
x1 = 0.1716 | 2.251 | 1.93 | 1.463 | 1.147
x1 = 0.2057 | 2.246 | 1.934 | 1.459 | 1.142
x1 = 0.3052 | 2.102 | 1.83 | 1.4 | 1.086
x1 = 0.4208 | 1.879 | 1.633 | 1.262 | 1.004
x1 = 0.5004 | 1.76 | 1.541 | 1.202 | 0.964
x1 = 0.6306 | 1.636 | 1.433 | 1.119 | 0.907
x1 = 0.6778 | 1.606 | 1.405 | 1.102 | 0.883
x1 = 0.7422 | 1.585 | 1.39 | 1.077 | 0.864
x1 = 0.8064 | 1.575 | 1.374 | 1.049 | 0.849
x1 = 0.8456 | 1.575 | 1.372 | 1.045 | 0.833

OC(C(F)(F)F)C(F)(F)F + c1ccccc1
viscosity [mPa·s], 101 kPa
Settings | x1 = 0.04927 | x1 = 0.1096 | x1 = 0.1764 | x1 = 0.2481 | x1 = 0.3333 | x1 = 0.4173 | x1 = 0.5478 | x1 = 0.6489 | x1 = 0.8774
298.15 K | 0.595 | 0.589 | 0.583 | 0.585 | 0.612 | 0.648 | 0.743 | 0.834 | 1.216
313.15 K | 0.481 | 0.475 | 0.466 | 0.471 | 0.486 | 0.508 | 0.561 | 0.617 | 0.818
323.15 K | 0.425 | 0.423 | 0.412 | 0.414 | 0.425 | 0.441 | 0.482 | 0.521 | 0.658

Oc1ccccc1 + CN(C)c1ccccc1
viscosity [mPa·s], 101 kPa
Settings | 293.15 K | 302.95 K | 313.35 K
x1 = 0.0998 | – | 1.351 | 1.159
x1 = 0.114 | 1.684 | – | –
x1 = 0.2041 | – | 1.629 | 1.354
x1 = 0.2122 | 2.045 | – | –
x1 = 0.2884 | 2.415 | – | –
x1 = 0.2958 | – | 1.936 | 1.57
x1 = 0.385 | – | 2.315 | 1.84
x1 = 0.3889 | 3.085 | – | –
x1 = 0.4659 | 3.77 | – | –
x1 = 0.477 | – | 2.83 | 2.185
x1 = 0.5458 | 4.7 | – | –
x1 = 0.5549 | – | 3.33 | 2.51
x1 = 0.6187 | 5.64 | – | –
x1 = 0.6224 | – | 3.93 | 2.855
x1 = 0.6851 | 6.75 | – | –
x1 = 0.6955 | – | 4.705 | 3.34
x1 = 0.75 | 8.01 | – | –
x1 = 0.7591 | – | 5.325 | 3.715
x1 = 0.8215 | 9.4 | – | –
x1 = 0.8274 | – | 6.025 | 4.15
x1 = 0.8827 | 10.3 | – | –
x1 = 0.8884 | – | 6.48 | 4.4
x1 = 0.9428 | 10.87 | – | –
x1 = 0.9463 | – | 6.86 | 4.59

COCCOCCOC + CCCCCCC
viscosity [mPa·s], 101.33 kPa
Settings | x1 = 0.0978 | x1 = 0.197 | x1 = 0.2958 | x1 = 0.3834 | x1 = 0.4946 | x1 = 0.594 | x1 = 0.6956 | x1 = 0.7955 | x1 = 0.8992
298.15 K | 0.407 | 0.436 | 0.471 | 0.508 | 0.562 | 0.619 | 0.689 | 0.768 | 0.871
303.15 K | 0.386 | 0.412 | 0.444 | 0.478 | 0.527 | 0.58 | 0.643 | 0.714 | 0.807
308.15 K | 0.367 | 0.39 | 0.421 | 0.451 | 0.5 | 0.545 | 0.602 | 0.668 | 0.751
313.15 K | 0.351 | 0.371 | 0.398 | 0.426 | 0.468 | 0.513 | 0.566 | 0.627 | 0.7
318.15 K | 0.333 | 0.354 | 0.378 | 0.404 | 0.443 | 0.484 | 0.532 | 0.587 | 0.656

Reference: the CheMixHub viscosity set
